Laboratory results reported in EP0672658B1, “Antithrombotic agents” (priority 1994, dated 1995).
Counter-ions that a name gives are not always drawn.

Experiments:
human or animal plasma [1] = assay: Anticoagulation determination in plasma: prothrombin time (PT); format: biochemical; settings: concentration doubling prothrombin time
In short: (§1)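 Compounds spiked over a concentration range into citrated human, dog or rat plasma. PT used Thromboplastin-C; APTT used Actin reagent 120 s then 0.02 M CaCl2; TT used bovine thrombin 10 NIH units/mL. Concentration doubling clotting time estimated by linear extrapolation.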

Trypsin = biological target: T1, Trypsin (Bos taurus, UniProt P00760); assay: biochemical; parameters: species or system Bovine; settings: read-out: Kass Trypsin (converted)
T1 sequence (P00760 24-246): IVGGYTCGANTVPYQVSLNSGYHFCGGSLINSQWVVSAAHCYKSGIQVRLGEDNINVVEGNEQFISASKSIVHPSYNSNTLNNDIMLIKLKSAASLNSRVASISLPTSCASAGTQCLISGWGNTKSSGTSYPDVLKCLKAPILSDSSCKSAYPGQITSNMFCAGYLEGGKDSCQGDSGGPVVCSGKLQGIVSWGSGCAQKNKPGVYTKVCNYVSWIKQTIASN
In short: (§2)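 Bovine trypsin and human factor Xa amidase activity measured chromogenically, following the human thrombin procedure. Substrates: N-Benzoyl-Ile-Glu-Gly-Arg-p-nitroanilide for factor Xa and N-Benzoyl-Phe-Val-Arg-p-nitroanilide for trypsin. Used for selectivity profiling.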

factor Xa = factor Xa (Homo sapiens, UniProt P00742); assay: biochemical; settings: read-out: Kass Xa (converted)
In short: as §2

human or animal plasma [2] = assay: Anticoagulation determination in plasma: thrombin time (TT); format: biochemical; settings: concentration doubling thrombin time
In short: as §1

human or animal plasma [3] = assay: Anticoagulation determination in plasma: activated partial thromboplastin time (APTT); format: biochemical; settings: concentration doubling activated partial thromboplastin time
In short: as §1

Human Thrombin = Human Thrombin (Homo sapiens, UniProt P00734); assay: biochemical; settings: read-out: Kass Human Thrombin (converted)
in vivo = assay: in vivo; parameters: species or system rats; settings: screening not completed, activity after p.o. dose given in the legend
From the text: Each sample population represented alternating sequential time points.

Plasmin = biological target: T2, Plasmin (Homo sapiens, UniProt P00747); assay: biochemical; settings: read-out: Kass Plasmin (converted)
T2 construct: Human plasmin is purchased; purchased Boehringer Mannheim, Indianapolis, Indiana
In short: (§3)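 Amidase activity of human plasmin and t-PA (nt-PA single-chain; mt-PA6) was measured by a chromogenic method adapted from a thrombin assay. Substrates were H-D-Val-Leu-Lys-p-nitroanilide for plasmin and H-D-Ile-Pro-Arg-p-nitroanilide for t-PA.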

t-PA = t-PA (Homo sapiens, UniProt P00750); assay: biochemical; settings: read-out: Kass t-PA (converted)
In short: as §3

[4] = Coagulation parameters in plasma of treated rats (TT, APTT, prothrombin time); format: in vivo, rat; settings: for plasma thrombin time prolonged: during infusion reducing thrombus weight to approximately 20% of control in the Arterio-Venous shunt model
Procedure: Plasma thrombin time (TT) and activated partial thromboplastin time (APTT) are measured with a fibrometer. Blood is sampled from a jugular catheter and collected in syringe containing sodium citrate (3.8%, 1 part to 9 parts blood). To measure TT, rat plasma (0.1 mL) is mixed with saline (0.1 mL) and bovine thrombin (0.1 mL, 30 U/mL in TRIS buffer; Parke Davis) at 37 °C. For APTT, plasma (0.1 mL) and APTT solution (0.1 mL, Organon Teknika) are incubated for 5 minutes (37 °C) and CaCl2 (0.01 mL, 0.025 M) is added to start coagulation. Assays are done in duplicate and averaged.

[5] = Arterio-Venous shunt model; format: in vivo, rats; settings: continuous intravenous infusion; for thrombus weight: both compounds to the same extent
Procedure: […]. Blood circulated through the shunt for 15 minutes before the thread is carefully removed and weighed. The weight of a wet thread is subtracted from the total weight of the thread and thrombus (see J.R. Smith, Br. J. Pharmacol., 77,29 (1982)).

[6] = during infusion in the Arterio-Venous shunt model
Throughout, for % oral/i.v. activity (Rat): key: NC^1 indicates screening not completed; low or very low activity obsrved at 20 mg/kg p.o; NC^2 indicates screening not completed; low or very low activity observed at 60 mg/kg p.o; NC^3 indicates screening not completed; low or very low activity observed at 50 mg/kg p.o.

T2 sequence (P00747 581-810 limits assumed): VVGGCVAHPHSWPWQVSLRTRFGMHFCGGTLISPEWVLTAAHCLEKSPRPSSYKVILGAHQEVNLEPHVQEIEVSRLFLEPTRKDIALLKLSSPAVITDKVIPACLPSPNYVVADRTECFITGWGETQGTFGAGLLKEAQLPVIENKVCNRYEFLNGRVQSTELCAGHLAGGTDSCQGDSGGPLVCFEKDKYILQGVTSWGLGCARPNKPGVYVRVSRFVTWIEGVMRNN
T2 sequence (P00747 97-580 partner limits assumed): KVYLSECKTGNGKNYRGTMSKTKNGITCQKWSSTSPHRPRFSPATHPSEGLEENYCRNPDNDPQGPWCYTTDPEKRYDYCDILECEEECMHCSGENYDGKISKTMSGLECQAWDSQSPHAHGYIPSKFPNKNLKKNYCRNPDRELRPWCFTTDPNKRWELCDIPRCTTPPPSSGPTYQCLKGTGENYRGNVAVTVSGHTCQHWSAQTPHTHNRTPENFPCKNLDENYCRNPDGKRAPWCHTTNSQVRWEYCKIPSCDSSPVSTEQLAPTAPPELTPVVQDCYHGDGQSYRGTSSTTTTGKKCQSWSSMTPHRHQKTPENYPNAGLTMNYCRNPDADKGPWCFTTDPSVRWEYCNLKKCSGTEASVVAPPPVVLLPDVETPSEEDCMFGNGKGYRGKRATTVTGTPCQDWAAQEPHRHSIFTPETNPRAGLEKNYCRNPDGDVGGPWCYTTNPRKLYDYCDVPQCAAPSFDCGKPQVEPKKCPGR
Sequence of t-PA (P00750 36-562): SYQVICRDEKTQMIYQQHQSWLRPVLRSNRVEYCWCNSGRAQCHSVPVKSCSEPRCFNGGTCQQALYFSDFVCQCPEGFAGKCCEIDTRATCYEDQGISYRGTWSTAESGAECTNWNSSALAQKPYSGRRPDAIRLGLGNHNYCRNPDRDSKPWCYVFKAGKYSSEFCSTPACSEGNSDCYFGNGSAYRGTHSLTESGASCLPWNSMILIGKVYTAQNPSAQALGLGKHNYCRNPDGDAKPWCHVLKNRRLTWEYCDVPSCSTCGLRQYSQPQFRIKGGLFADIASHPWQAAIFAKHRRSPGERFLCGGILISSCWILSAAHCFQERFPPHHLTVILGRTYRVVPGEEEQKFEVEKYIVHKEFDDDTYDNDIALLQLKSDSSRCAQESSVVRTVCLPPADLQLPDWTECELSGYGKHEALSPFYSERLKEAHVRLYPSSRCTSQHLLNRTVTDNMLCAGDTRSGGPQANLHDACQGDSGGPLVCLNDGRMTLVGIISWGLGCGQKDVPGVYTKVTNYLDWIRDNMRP
Sequence of factor Xa (P00742 235-488 limits assumed): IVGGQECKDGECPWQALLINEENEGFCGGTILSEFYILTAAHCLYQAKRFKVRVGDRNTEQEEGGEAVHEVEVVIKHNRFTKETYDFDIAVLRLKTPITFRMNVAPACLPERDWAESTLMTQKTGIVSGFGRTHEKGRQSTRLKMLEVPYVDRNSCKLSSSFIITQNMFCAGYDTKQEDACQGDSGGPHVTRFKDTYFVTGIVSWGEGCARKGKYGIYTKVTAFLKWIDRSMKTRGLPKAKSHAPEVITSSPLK
Sequence of factor Xa (P00742 41-179 partner limits assumed): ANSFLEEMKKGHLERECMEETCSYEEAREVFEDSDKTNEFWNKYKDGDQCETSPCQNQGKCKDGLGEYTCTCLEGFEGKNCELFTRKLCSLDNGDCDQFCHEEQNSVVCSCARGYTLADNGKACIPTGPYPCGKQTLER

SMILES	Human Plasma Anticoagulation 2x Clotting time (ng/mL) PT (human or animal plasma [1]) [ng/mL]	Kd (Trypsin) [nM]	Kd (factor Xa) [nM]	Human Plasma Anticoagulation 2x Clotting time (ng/mL) TT (human or animal plasma [2]) [ng/mL]	Human Plasma Anticoagulation 2x Clotting time (ng/mL) APTT (human or animal plasma [3]) [ng/mL]	Kd (Human Thrombin) [nM]	% oral/i.v. activity (Rat) (in vivo)	Kd (Plasmin) [nM]	Kd (t-PA) [nM]	APTT extended [4, 6]	Prothrombin time extended [4, 6]	plasma thrombin time prolonged [4]	thrombus weight [5]	antithrombotic potency compared with D-MePhe-Pro-Arg-H ([5]; greater than D-MePhe-Pro-Arg-H) [fold]
CCS(=O)(=O)N[C@H](Cc1ccccc1)C(=O)N1[C@H](C(=O)NCc2ccc(C(=N)N)cc2)C[C@@H]2CCCC[C@@H]21 [Example 45, EtSO2-Phe-cis-Ohi-p-NHCH2C6H4C(NH)NH2·HCl]	330	9.09	667	8	200	1.64	NC^2	909	1300	–	–	–	–	–
N=C(N)c1ccc(CNC(=O)[C@@H]2CCCN2C(=O)[C@@H](CC2CCCCC2)NCC(=O)O)cc1 [Example 48, HOOCCH2-D-Cha-Pro-p-NHCH2C6H4C(NH)NH2·HCl]	59	4	182	2.	33	0.244	–	2330	20000	about 120 % of control	about 120 % of control	about 3 fold	approximately 20 % of control	9
CCS(=O)(=O)N[C@H](Cc1ccccc1)C(=O)N1CCC[C@H]1C(=O)NCCc1ccc(C(=N)N)cc1 [Example 26, EtSO2-D-Phe-Pro-p-NHCH2CH2-C6H4C(=NH)NH2·HCl]	750	4760	100000	37	870	76.9	NC^1	100000	100000	–	–	–	–	–
CN[C@H](Cc1ccccc1)C(=O)N1CCC[C@H]1C(=O)N[C@H](C=O)CCCNC(=N)N [D-MePhe-Pro-Arg-H, reference compound]	–	–	–	–	–	–	–	–	–	–	–	greater than 20 fold	approximately 20 % of control	–
